The supplement of paper PMC10307832

Assays:
Experiment in all cases: relative viability (nuclei count vs DMSO), 5 days (fraction); higher = more cells survive
COR-L 105 = system: COR-L 105
How it was run: (§1)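 Five library-drug doses in √10 steps were combined with a fixed anchor-drug dose, or a single drug was given alone, by pin tool to lung cancer cell lines in 1536-well plates the day after seeding. Nuclei were stained and counted after 5 days. Relative viability is the nuclei count in treated wells over that in vehicle wells, taken as the median of duplicate plates.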

COR-L23 = system: COR-L23
How it was run: as §1

HARA = system: HARA
How it was run: as §1

HCC-15 = system: HCC-15
How it was run: as §1

HOP-62 = system: HOP-62
How it was run: as §1

NCI-H1355 = system: NCI-H1355
How it was run: as §1

NCI-H1395 = system: NCI-H1395
How it was run: as §1

NCI-H1734 = system: NCI-H1734
How it was run: as §1

NCI-H1755 = system: NCI-H1755
How it was run: as §1

NCI-H1793 = system: NCI-H1793
How it was run: as §1

NCI-H1993 = system: NCI-H1993
How it was run: as §1

Structure (SMILES): O=c1cc(N2CCOCC2)oc2c(-c3cccc4c3sc3ccccc34)cccc12 + Cc1cc(Nc2cc(N3CCN(C)CC3)nc(Sc3ccc(NC(=O)C4CC4)cc3)n2)n[nH]1 [Tozasertib] (partner 0.1 µM)
- relative viability (COR-L 105; first compound 0.01 µM): 0.346
- relative viability (COR-L 105; first compound 0.03162 µM): 0.286
- relative viability (COR-L 105; first compound 0.1 µM): 0.373
- relative viability (COR-L 105; first compound 0.3162 µM): 0.303
- relative viability (COR-L 105; first compound 1 µM): 0.299
- relative viability (COR-L23; first compound 0.01 µM): 0.213
- relative viability (COR-L23; first compound 0.03162 µM): 0.231
- relative viability (COR-L23; first compound 0.1 µM): 0.18
- relative viability (COR-L23; first compound 0.3162 µM): 0.234
- relative viability (COR-L23; first compound 1 µM): 0.225
- relative viability (HARA; first compound 0.01 µM): 0.139
- relative viability (HARA; first compound 0.03162 µM): 0.139
- relative viability (HARA; first compound 0.1 µM): 0.477
- relative viability (HARA; first compound 0.3162 µM): 0.103
- relative viability (HARA; first compound 1 µM): 0.128
- relative viability (HCC-15; first compound 0.01 µM): 0.413
- relative viability (HCC-15; first compound 0.03162 µM): 0.379
- relative viability (HCC-15; first compound 0.1 µM): 0.433
- relative viability (HCC-15; first compound 0.3162 µM): 0.33
- relative viability (HCC-15; first compound 1 µM): 0.448
- relative viability (HOP-62; first compound 0.01 µM): 0.336
- relative viability (HOP-62; first compound 0.03162 µM): 0.315
- relative viability (HOP-62; first compound 0.1 µM): 0.402
- relative viability (HOP-62; first compound 0.3162 µM): 0.325
- relative viability (HOP-62; first compound 1 µM): 0.382
- relative viability (NCI-H1355; first compound 0.01 µM): 0.545
- relative viability (NCI-H1355; first compound 0.03162 µM): 0.59
- relative viability (NCI-H1355; first compound 0.1 µM): 0.552
- relative viability (NCI-H1355; first compound 0.3162 µM): 0.55
- relative viability (NCI-H1355; first compound 1 µM): 0.514
- relative viability (NCI-H1395; first compound 0.01 µM): 0.78
- relative viability (NCI-H1395; first compound 0.03162 µM): 0.776
- relative viability (NCI-H1395; first compound 0.1 µM): 0.659
- relative viability (NCI-H1395; first compound 0.3162 µM): 0.832
- relative viability (NCI-H1395; first compound 1 µM): 0.682
- relative viability (NCI-H1734; first compound 0.01 µM): 0.236
- relative viability (NCI-H1734; first compound 0.03162 µM): 0.264
- relative viability (NCI-H1734; first compound 0.1 µM): 0.307
- relative viability (NCI-H1734; first compound 0.3162 µM): 0.259
- relative viability (NCI-H1734; first compound 1 µM): 0.243
- relative viability (NCI-H1755; first compound 0.01 µM): 0.592
- relative viability (NCI-H1755; first compound 0.03162 µM): 0.669
- relative viability (NCI-H1755; first compound 0.1 µM): 0.693
- relative viability (NCI-H1755; first compound 0.3162 µM): 0.539
- relative viability (NCI-H1755; first compound 1 µM): 0.542
- relative viability (NCI-H1793; first compound 0.01 µM): 0.352
- relative viability (NCI-H1793; first compound 0.1 µM): 0.324
- relative viability (NCI-H1793; first compound 0.3162 µM): 0.312
- relative viability (NCI-H1793; first compound 1 µM): 0.276
- relative viability (NCI-H1993; first compound 0.01 µM): 0.554
- relative viability (NCI-H1993; first compound 0.03162 µM): 0.581
- relative viability (NCI-H1993; first compound 0.1 µM): 0.569
